The values below come from paper PMC6130518, “Investigation of the effective components of the flowers of Trollius chinensis from the perspectives of intestinal bacterial transformation and intestinal absorption” (Pharmaceutical Biology, 2017).

One series relates to Caco-2 cells. Put plainly: MTT assay, non-toxic dose range. The format is cell-based, human. The settings on record: 4 h, positive control. The method, then:
The Caco-2 cells were seeded into 96-well plates as they were in logarithmic growth phase. Each well was added with 100 μL of the cell suspension (8.0 × 10^3 cells/mL) and incubated in 5% CO2 and constant temperature (37 °C) and humidity in the incubator. […] The cells were incubated under the same conditions for 4 h; then, 100 μL of 3-(4,5-dimethylthiazolzyl)-2,5-diphenyl tetrazolium bromide (MTT, Amresco, Radnor, PA) solution at the concentration of 0.5 mg/mL took the place of HBSS. After the cells were incubated under the same conditions for 4 h, the supernatant was replaced by 150 μL of dimethyl sulphoxide (DMSO, Sigma Chemical Co., Deisenhofen, Germany); then, the cells were shaken for 10 min. The absorption of the samples was measured on a microplate reader (BioTek Instruments, Inc., Winooski, VT) at the wavelength of 570 nm.
The following formula was used to calculate the cell survival rate=A/A0×100%, wherein, A represented the average absorbance value of the experiment groups, and A0 represented the average absorbance value of the control group.
Background: Formazan colour is commonly taken as a measure of viable cells.

The test system of another series is Caco-2 cell monolayers. Put plainly: Transport experiment with Caco-2 cell monolayers. The settings on record: for transport percentage: Caco-2 cell monolayers; for After transported with Caco-2 cell monolayers: intestinal bacterial transformed AEOF. (Passage across Caco-2 layers is used to estimate intestinal permeability.)
The nature of series [1]: Transport experiment with Caco-2 cell monolayers. The settings on record: human, Caco-2, Papp, Caco-2 cell monolayers; for Papp at 180 min, 10 mg/mL: extract 10 mg/mL; for Papp at 180 min, 20 mg/mL: extract 20 mg/mL; for Papp at 180 min, 30 mg/mL: extract 30 mg/mL.
For series [2] the following is noted: previous study, ref Liu et al. [2015]; cited from earlier work.
The test system of series [3] is everted gut sacs (jejunum). Kind of series: Absorption experiment with everted gut sacs. The settings on record: for transport percentage: Everted gut sacs, AP→BL; for After transported with everted gut sacs: intestinal bacterial transformed AEOF.
Series [4] is described as follows: Absorption experiment with everted gut sacs. The settings on record: Sprague-Dawley, rat.
Series [5] relates to activated intestinal bacteria. Kind of series: Intestinal bacterial transformation of AEOF. The settings on record: for After transformed by intestinal bacteria / Before transformed by intestinal bacteria: content in the extract; for transformation by intestinal bacteria (in words): in AEOF 15.0, 30.0, 60.0 mg/mL, up to 72 h, single person derived- or multiple people-derived intestinal bacteria. The format is in vitro ADME, human.

[6] abbreviates: first of three lines per compound (lowest concentration; 10, 20, 30 mg/mL).
[7] abbreviates: second of three lines per compound (middle concentration, not given).
[8] abbreviates: third of three lines per compound (highest concentration, not given).
The mark [9] stands for this setting: second of three lines per compound (middle extract concentration, not given).
The mark [10] stands for this setting: third of three lines per compound (highest extract concentration, not given).

Turning to `CC(=O)O[C@H]1C(=O)[C@@]2(C)[C@H]([C@H](OC(=O)c3ccccc3)[C@]3(O)C[C@H](OC(=O)[C@H](O)[C@@H](NC(=O)c4ccccc4)c4ccccc4)C(C)=C1C3(C)C)[C@]1(OC(C)=O)CO[C@@H]1C[C@@H]2O` [paclitaxel], the “survival rate of the Caco-2 cells” value was 67.3% in the series with Caco-2 cells (0.02 mg/L), 45.5% in the series on Caco-2 cells (0.04 mg/L) and 37.4% with Caco-2 cells (0.08 mg/L).
One may read the Papp as a coefficient for how fast a substance crosses the barrier. As to `O=c1cc(-c2ccc(O)c(O)c2)oc2c(C3OC(CO)C(O)C(O)C3OC3OC(CO)C(O)C(O)C3O)c(O)cc(O)c12` [2″-O-β-L-galactopyranosylorientin], the transport percentage with Caco-2 cell monolayers (extract 10 mg/mL, AP→BL) was found to be 13.41%; in the series with Caco-2 cell monolayers (extract 10 mg/mL, BL→AP) it was 8.72%; with Caco-2 cell monolayers (extract 20 mg/mL, AP→BL), 22.93%; in the series with Caco-2 cell monolayers (extract 20 mg/mL, BL→AP), 14.08%; in the series on Caco-2 cell monolayers (extract 30 mg/mL, AP→BL), 49.29%; in the series on Caco-2 cell monolayers (extract 30 mg/mL, BL→AP), 16.83%. Further, the transport percentage came out at 8.76% in series [3] (extract 10 mg/mL), 4.23% in series [3] (extract 20 mg/mL) and 9.25% in series [3] (extract 30 mg/mL). Moreover, the results for the “After transported with Caco-2 cell monolayers” value in the series on Caco-2 cell monolayers (setting [6]), in the series on Caco-2 cell monolayers (setting [7]) and with Caco-2 cell monolayers (setting [8]) were 0.41 µg/mL, 1.44 µg/mL and 4.78 µg/mL, respectively. Besides, the Papp at 180 min, 10 mg/mL in series [1] (AP→BL) is 11.1 ± 0.9 ×10⁻⁶ cm/s; in series [1] (BL→AP) it was 21.6 ± 2.4 ×10⁻⁶ cm/s; in series [4], 41.1 ± 2.5 ×10⁻⁶ cm/s. The Papp at 180 min, 20 mg/mL was determined as 19 ± 0.9 ×10⁻⁶ cm/s in series [1] (AP→BL), 34.9 ± 0.9 ×10⁻⁶ cm/s in series [1] (BL→AP) and 22.3 ± 4.1 ×10⁻⁶ cm/s in series [4]. Further, the apparent permeability (Papp) at 180 min, 30 mg/mL in series [1] (AP→BL) is 40.7 ± 4 ×10⁻⁶ cm/s; in series [1] (BL→AP), 41.7 ± 2.8 ×10⁻⁶ cm/s; in series [4], 46.7 ± 2.5 ×10⁻⁶ cm/s. In series [2], the absorption mechanism entry was “transporter mediated efflux in addition to passive diffusion”. Also, the “After transported with everted gut sacs” value in series [3] (setting [6]) amounted to 1.57 µg/mL; in series [3] (setting [7]) it was 1.69 µg/mL; in series [3] (setting [8]) it was 5.38 µg/mL. Also, the “After transformed by intestinal bacteria” value turned out to be 28.06 µg/mL in series [5] (first of three lines per compound (lowest extract concentration)), 56.34 µg/mL in series [5] (setting [9]) and 100.57 µg/mL in series [5] (setting [10]). The “Before transformed by intestinal bacteria” value in series [5] (first of three lines per compound (lowest extract concentration; AEOF 15, 30, 60 mg/mL)) came out at 26.86 µg/mL; in series [5] (setting [9]), 56.18 µg/mL; in series [5] (setting [10]) it was 104.39 µg/mL. Moreover, the “transformation by intestinal bacteria (in words)” value in series [5] is “not changed”; in series [5] (listed as 2″-O-β-L-Galactopyranosylorientin), “not transformed”.
